Experimental data from patent publication US7018989B2, “Chemical compounds” (University College Cardiff Consultants, LTD, priority 1995, dated 2006).
Like-named read-outs stand apart in the source and are kept apart here.

How the values were obtained:
[1] = test system: HIV-1; experiment: microbe, parasite or virus in culture; conditions: read-out: HIV1 CEM: EC50 for inhibition of HIV-1 in CEM cells
Description: (§1) Cells were infected with HIV-1 as previously described [Balzarini et al. AIDS (1991), 5, 21–28]. Briefly, 5×10^5 cells per milliliter were infected with HIV-1 or HIV-2 at 100 CCID50 (50% cell culture infective dose) per milliliter of cell suspension. Then 100 μL of the infected cell suspension was transferred to microtiter plate wells and mixed with 100 μL of the appropriate dilutions of the test compounds. After 4 days giant cell formation was recorded microscopically in the HIV-infected cell cultures [CEM], and after 5 days the number of viable cells was determined by trypan blue staining of the HIV-infected cell cultures [MT4].
(§2) The data columns are, in order: • HIV1 MT4: EC50 in μM for inhibition of HIV-1 in MT4 cells. • HIV2 MT4: EC50 in μM for inhibition of HIV-2 in MT4 cells. • CC50 MT4: CC50 in μM for toxicity to MT-4 cells. • HIV1 CEM: EC50 in μM for inhibition of HIV-1 in CEM cells. • HIV2 CEM: EC50 in μM for inhibition of HIV-2 in CEM cells. • HIV2 CEM-TK-: EC50 in μM for inhibition of HIV-2 in CEM/TK^− cells. • CC50 CEM: CC50 in μM for toxicity to CEM cells. • EC50 MSV: EC50 in μM for inhibition of MSV • MCC MSV: Minimum cytotoxic concentration in MSV assay

[2] = test system: C8166 cells; experiment: Toxicity in C8166 cells (MTT-Formazen); assay type: cell-based; conditions: Table 3
Description: (§3) C8166 cells. Cells were grown in RPMI 1640 with 10% calf serum. 4×10^4 cells per microtiter plate well were mixed with 5-fold dilutions of compound prior to addition of 10 CCID50 units of III-B strain of HIV-1 and incubated for 5–7 days (Betbeder et al. Antiviral Chem. Chemother. 1, 241–247, 1990). Formation of syncytia was examined from 2 days post-infection. Culture fluid was collected at 5–7 days and gp120 antigen production measured by ELISA (Mahmood and Hay, J. Immunol. Meth., 151, 9–13, 1992). […] Cell viability of infected and uninfected cells were assessed by the MTT-Formazen method (Pauwels et al. J. Virol. Meth. 20, 309–321, 1988).
(§4) Each assay was carried out in duplicate, on at least two separate occasions, and data quoted are the average of each separate assay.

[3] = test system: III-B strain of HIV-1; experiment: microbe, parasite or virus in culture; assay type: cell-based
Description: as §3, §4

[4] = test system: HIV-2; experiment: Inhibition of HIV-2 in CEM cells (giant cell formation); assay type: cell-based
Description: as §1, §2

[5] = test system: CEM cells; experiment: Toxicity to CEM cells; assay type: cell-based, human
Description: as §1, §2

[6] = test system: HIV-2; experiment: Inhibition of HIV-2 in CEM/TK- cells; assay type: cell-based
Description: as §1, §2

[7] = Minimum cytotoxic concentration in MSV assay; assay type: cell-based
Text: as §2, with “CEM/TK^-” for “CEM/TK^−”, “[…]:” for “MSV • MCC MSV:”

[8] = test system: MSV; experiment: Inhibition of MSV (in vitro); assay type: cell-based, Moloney Sarcoma Virus
Text: as §2

[9] = Table 6, mean of two or more repeat experiments
[10] = HIV1 in C8166 cells, Table 3, read-out: Activity EC50
[11] = Table 6, mean of two or more repeat experiments, read-out: HIV2 CEM: EC50 for inhibition of HIV-2 in CEM cells
[12] = Table 6, mean of two or more repeat experiments, read-out: HIV2 CEM-TK-: EC50 for inhibition of HIV-2 in CEM/TK^− cells
[13] = HIV2, Table 2, read-out: EC50 CEM TK^−
[14] = CEM cells, HIV-2, read-out: HIV2 CEM: EC50 for inhibition of HIV-2 in CEM cells
[15] = CEM/TK- cells, HIV-2, read-out: HIV2 CEM-TK-: EC50 for inhibition of HIV-2 in CEM/TK- cells

Compound | EC50 [1, 9] | EC50 [4, 11] | CC50 [5, 9] | EC50 [6, 12] | MCC MSV: Minimum cytotoxic concentration in MSV assay ([7]; Table 6) | EC50 ([8]; Table 6) | further results
CCCCCCOC(=O)[C@H](C)NP(=O)(OCC1C=CC(n2cc(C)c(=O)[nH]c2=O)O1)Oc1ccccc1 (stereo partly shown) [Compound 862, 2′,3′-dideoxy-2′,3′-didehydrothymidine 5′-(phenyl N-hexyloxyalaninyl) phosphoramidate] | 0.06 µM | 0.055 µM | 48 µM | 0.033 µM | – | – | CC50 [2]: 500 µM; Selectivity CC50/EC50 × 10^3 [3]: 417 × 10^3; EC50 [3, 10]: 0.0012 µM
Cc1cn(C2C=CC(COP(=O)(NC(C)C(=O)OCc3ccccc3)Oc3ccc(Br)cc3Br)O2)c(=O)[nH]c1=O (stereo not shown) [Compound 868, 2′,3′-dideoxy-2′, 3′-didehydrothymidine-5′-(2,4-dibromophenyl N-benzylalaninyl) phosphoramidate] | 0.2 µM | 0.2 µM | 50 µM | 0.2 µM | – | – | CC50 [2]: 500 µM; Selectivity CC50/EC50 × 10^3 [3]: 156 × 10^3; EC50 [3, 10]: 0.0032 µM
COC(=O)C(C)NP(=O)(O)OCC1C=CC(n2cc(C)c(=O)[nH]c2=O)O1 (stereo not shown) [Compound 1129] | 2 µM | 4.5 µM | > 250 µM | 50 µM | >100 | 47.4 µM | –
Cc1cn(C2C=CC(COP(=O)(NC(C)C(=O)OCc3ccccc3)Oc3ccccc3)O2)c(=O)[nH]c1=O (stereo not shown) [Compound 730, 2′,3′-dideoxy-2′,3′-didehydrothymidine-5′-(phenyl N-benzyloxyalaninyl) phosphoramidate] | 0.016 µM | 0.016 µM | – | 0.06 µM | – | – | CC50 [2]: 400 µM; EC50 ([3]; HIV1 in C8166, Table 2, read-out: EC50 C8166): 0.0008 µM; EC50 [3, 10]: 0.0008 µM; EC50 [4, 13]: 0.016 µM; EC50 [6, 13]: 0.06 µM
COC(=O)[C@@H](C)NP(=O)(OCC1C=CC(n2cc(C)c(=O)[nH]c2=O)O1)Oc1ccccc1 (stereo partly shown) [Compound 932] | 3 µM | 2 µM | > 250 µM | 2.5 µM | >100 | ≥ 100 µM | –
COC(=O)CCC(NP(=O)(OCC1C=CC(n2cc(C)c(=O)[nH]c2=O)O1)Oc1ccccc1)C(=O)OC (stereo not shown) [Compound 1081] | 8 µM | 5.33 µM | ≥ 250 µM | 16 µM | >100 | 88.8 µM | –
Cc1cn(C2C=CC(COP(=O)(O)NC(CC(=O)O)C(=O)O)O2)c(=O)[nH]c1=O (stereo not shown) [Compound 1079] | 1.6 µM | 2.5 µM | ≥ 250 µM | 70 µM | >100 | 9.3 µM | –
CCOC(=O)CCNP(=O)(OCC1C=CC(n2cc(C)c(=O)[nH]c2=O)O1)Oc1ccccc1 (stereo not shown) [Compound 950] | 250 µM | ≥ 250 µM | > 250 µM | > 250 µM | >100 | > 100 µM | –
COC(=O)C(C)NP(=O)(OCC1C=CC(n2cc(C)c(=O)[nH]c2=O)O1)Oc1ccc(F)cc1 (stereo not shown) [Compound 327, 2′,3′-dideoxy-2′,3′-didehydrothymidine 5′-(p-fluorophenylmethoxyalaninyl) phosphoramidate] | – | – | – | – | – | – | CC50 [2]: 200 µM; Selectivity CC50/EC50 × 10^3 [3]: 62.5 × 10^3; EC50 [3, 10]: 0.0032 µM
Cc1cn(C2CC(N=[N+]=[N-])C(COP(=O)(O)NC(C)C(=O)O)O2)c(=O)[nH]c1=O (stereo not shown) [Cpd 1071] | – | – | – | – | – | – | EC50 ([1]; CEM cells, HIV-1): 115 µM; EC50 [4, 14]: 10 µM; MCC MSV: Minimum cytotoxic concentration in MSV assay ([7]; MSV assay): >100; EC50 ([8]; MSV): > 250 µM; CC50 ([5]; CEM cells): > 250 µM; EC50 [6, 15]: 250 µM
COC(=O)CC(NP(=O)(OCC1C=CC(n2cc(C)c(=O)[nH]c2=O)O1)Oc1ccccc1)C(=O)OC (stereo not shown) [Compound 1078] | 0.55 µM | 0.65 µM | 209 µM | 0.33 µM | >100 | 31.4 µM | –
COC(=O)COP(=O)(OCC1C=CC(n2cc(C)c(=O)[nH]c2=O)O1)Oc1ccccc1 (stereo not shown) [Compound 980] | 27.5 µM | 50 µM | > 250 µM | > 250 µM | >100 | > 100 µM | –
Cc1cn(C2C=CC(COP(=O)(Oc3ccccc3)N3CCCC3C(=O)OCc3ccccc3)O2)c(=O)[nH]c1=O (stereo not shown) [Compound 933] | 35 µM | 12.5 µM | 92 µM | > 50 µM | >100 | > 100 µM | –
Nc1ncnc2c1ncn2C1CCC(CO)O1 (stereo not shown) [Cpd 1069] | – | – | – | – | – | – | EC50 ([1]; CEM cells, HIV-1): 4 µM; EC50 [4, 14]: 8 µM; MCC MSV: Minimum cytotoxic concentration in MSV assay ([7]; MSV assay): >100; EC50 ([8]; MSV): 24.3 µM; CC50 ([5]; CEM cells): > 250 µM; EC50 [6, 15]: 17.5 µM
Cc1cn(C2C=CC(COP(=O)(O)NC(C)C(=O)OCc3ccccc3)O2)c(=O)[nH]c1=O (stereo not shown) [Compound 1137] | 0.95 µM | 1.6 µM | ≥ 250 µM | 8 µM | >100 | 15.7 µM | –
Cc1cn(C2C=CC(COP(=O)(O)O)O2)c(=O)[nH]c1=O (stereo not shown) [Compound 1131] | 0.4 µM | 0.6 µM | ≥ 250 µM | 50 µM | >100 | 6.7 µM | –
Cc1cn(C2C=CC(COP(=O)(O)NC(CCC(=O)O)C(=O)O)O2)c(=O)[nH]c1=O (stereo not shown) [Compound 1083] | 8.5 µM | 5.5 µM | ≥ 250 µM | > 250 µM | >100 | 54.6 µM | –
CSCC[C@H](NP(=O)(O)OC[C@@H]1C=C[C@H](n2cc(C)c(=O)[nH]c2=O)O1)C(=O)O [Compound 1156, 2′,3′-dideoxy-2′,3′-didehydrothymidine 5′-(methioninyl phosphate)] | 1.27 µM | 0.7 µM | > 250 µM | 50 µM | >100 | 16.2 µM | –
COC(=O)C(OP(=O)(OCC1C=CC(n2cc(C)c(=O)[nH]c2=O)O1)Oc1ccccc1)c1ccccc1 (stereo not shown) [Compound 982] | 1.7 µM | 0.65 µM | 94 µM | 15 µM | >100 | 14 µM | –
Cc1cn(C2C=CC(COP(=O)(O)N[C@H](C)C(=O)O)O2)c(=O)[nH]c1=O (stereo partly shown) [Compound 1095] | 1.3 µM | 1.6 µM | > 250 µM | 10 µM | >100 | 0.42 µM | –
CCOC(=O)COP(=O)(OCC1C=CC(n2cc(C)c(=O)[nH]c2=O)O1)Oc1ccccc1 (stereo not shown) [Compound 981] | 12.5 µM | 12.5 µM | ≥ 250 µM | 150 µM | >100 | > 100 µM | –
